{"source": "patent US9963461B2", "about": "“Phillygenin ibuprofen ester, preparation method therefor, and application thereof” (priority 2014, dated 2018)", "key": {"[1]": {"system": "respiratory syncytial virus (RSV)", "assay": "Impact of the drugs on the virus-induced cytopathy (MTT)", "format": "cell-based", "details": "RSV 100 TCID50, Vero cells, about the maximal non-cytotoxic concentration, 72 hours"}, "influenza virus [2]": {"system": "influenza virus", "format": "in vivo, Kunming mice", "details": "lung suspensions, influenza virus infected mice; 19.5 mg/kg/d, 5 days"}, "parainfluenza virus [3]": {"system": "parainfluenza virus", "format": "in vivo, Kunming mice", "details": "lung suspensions, parainfluenza virus infected mice; 19.5 mg/kg/d, 5 days"}, "Vero cell": {"system": "Vero cell", "assay": "Cytotoxicity test on Vero cell (MTT)", "details": "72 hours"}, "[4]": {"system": "Coxsackie virus A16 (CoxA16)", "assay": "Impact of the drugs on the virus-induced cytopathy (MTT)", "format": "cell-based", "details": "CoxA16 100 TCID50, Vero cells, about the maximal non-cytotoxic concentration, 72 hours"}, "influenza virus [5]": {"system": "influenza virus", "format": "in vivo, Kunming mice", "details": "influenza virus infected mice; 19.5 mg/kg/d intragastric, 5 days"}, "parainfluenza virus [6]": {"system": "parainfluenza virus", "format": "in vivo, Kunming mice", "details": "parainfluenza virus infected mice; 19.5 mg/kg/d intragastric, 5 days"}, "influenza virus [7]": {"system": "influenza virus", "assay": "Impact of the drugs on the virus-induced cytopathy (MTT)", "format": "cell-based", "details": "influenza virus 100 TCID50, Vero cells, about the maximal non-cytotoxic concentration, 72 hours"}, "parainfluenza virus [8]": {"system": "parainfluenza virus", "assay": "Impact of the drugs on the virus-induced cytopathy (MTT)", "format": "cell-based", "details": "parainfluenza virus 100 TCID50, Vero cells, about the maximal non-cytotoxic concentration, 72 hours"}, "[9]": {"system": "coxsackie virus B3 (CVB3)", "assay": "Impact of the drugs on the virus-induced cytopathy (MTT)", "format": "cell-based", "details": "CVB3 100 TCID50, Vero cells, about the maximal non-cytotoxic concentration, 72 hours"}, "Enterovirus EV71": {"system": "Enterovirus EV71", "assay": "Impact of the drugs on the virus-induced cytopathy (MTT)", "format": "cell-based", "details": "EV71 100 TCID50, Vero cells, about the maximal non-cytotoxic concentration, 72 hours"}, "[10]": {"system": "Herpes Simplex Virus type I (HSV-1)", "assay": "Impact of the drugs on the virus-induced cytopathy (MTT)", "format": "cell-based", "details": "HSV-I 100 TCID50, Vero cells, about the maximal non-cytotoxic concentration, 72 hours"}, "Adenovirus (AdV)": {"system": "Adenovirus (AdV)", "assay": "Impact of the drugs on the virus-induced cytopathy (MTT)", "format": "cell-based", "details": "ADV 100 TCID50, Vero cells, about the maximal non-cytotoxic concentration, 72 hours"}}, "note": "Marks after values point to notes of the source that are not given here.", "data": [{"smiles": "CCOC(=O)C1=C[C@@H](OC(CC)CC)[C@H](NC(C)=O)[C@@H](N)C1", "note": "[Oseltamivir phosphate, oseltamivir phosphate]", "values": [{"measurement": "antiviral effective rate (ER %)", "setting": "[1]", "result": 37.60, "unit": "%"}, {"measurement": "Hemagglutination titer (InX)", "setting": "influenza virus [2]", "result": "20.50 ± 1.122"}, {"measurement": "Hemagglutination titer Inhibitive rate (%)", "setting": "influenza virus [2]", "result": 36.73, "unit": "%"}, {"measurement": "Hemagglutination titer (InX)", "setting": "parainfluenza virus [3]", "result": "22.05 ± 1.055"}, {"measurement": "Hemagglutination titer Inhibitive rate (%)", "setting": "parainfluenza virus [3]", "result": 33.44, "unit": "%"}, {"measurement": "Median toxic concentration (TC50)", "setting": "Vero cell", "result": 0.832, "unit": "g/L"}, {"measurement": "maximal non-toxic concentration (TC0)", "setting": "Vero cell", "result": 0.28, "unit": "g/L"}, {"measurement": "antiviral effective rate (ER %)", "setting": "[4]", "result": 2.95, "unit": "%"}, {"measurement": "Lung index (X ± S)", "setting": "influenza virus [5]", "result": "1.178 ± 0.066"}, {"measurement": "Lung index Inhibitive rate (%)", "setting": "influenza virus [5]", "result": 19.84, "unit": "%"}, {"measurement": "Lung index (X ± S)", "setting": "parainfluenza virus [6]", "result": "1.243 ± 0.052"}, {"measurement": "Lung index Inhibitive rate (%)", "setting": "parainfluenza virus [6]", "result": 21.85, "unit": "%"}, {"measurement": "antiviral effective rate (ER %)", "setting": "influenza virus [7]", "result": "81.76** %"}, {"measurement": "antiviral effective rate (ER %)", "setting": "parainfluenza virus [8]", "result": "94.52** %"}, {"measurement": "antiviral effective rate (ER %)", "setting": "[9]", "result": 1.64, "unit": "%"}, {"measurement": "antiviral effective rate (ER %)", "setting": "Enterovirus EV71", "result": 51.86, "unit": "%"}, {"measurement": "antiviral effective rate (ER %)", "setting": "[10]", "result": "66.56** %"}, {"measurement": "antiviral effective rate (ER %)", "setting": "Adenovirus (AdV)", "result": 10.31, "unit": "%"}]}]}
